These results are taken from BindingDB's records for patent US12128028 (Metrion Biosciences, 2024).

Sequence of Potassium voltage-gated channel subfamily A member 3 (P22001 whole entry, the tested form may be a part): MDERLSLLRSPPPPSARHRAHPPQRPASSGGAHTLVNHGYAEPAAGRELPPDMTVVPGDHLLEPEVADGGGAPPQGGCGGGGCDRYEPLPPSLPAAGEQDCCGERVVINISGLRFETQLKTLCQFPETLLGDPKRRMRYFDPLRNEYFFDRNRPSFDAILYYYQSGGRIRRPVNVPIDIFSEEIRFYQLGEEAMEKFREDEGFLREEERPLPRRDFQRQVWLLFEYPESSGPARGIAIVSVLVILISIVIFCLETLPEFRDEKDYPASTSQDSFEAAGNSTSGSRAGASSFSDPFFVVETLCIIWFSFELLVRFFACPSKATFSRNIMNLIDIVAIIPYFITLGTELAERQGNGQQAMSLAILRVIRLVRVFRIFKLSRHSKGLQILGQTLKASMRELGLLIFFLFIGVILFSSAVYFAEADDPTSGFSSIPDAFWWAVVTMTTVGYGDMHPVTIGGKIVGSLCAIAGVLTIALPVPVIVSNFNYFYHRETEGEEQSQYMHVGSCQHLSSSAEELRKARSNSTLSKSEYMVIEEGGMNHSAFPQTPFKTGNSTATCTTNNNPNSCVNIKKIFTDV

The test addresses Potassium voltage-gated channel subfamily A member 3 (Homo sapiens, UniProt P22001). As to the kind of experiment: Biological Assay. As for the experimental part:
The QPatch HT system (Sophion Bioscience A/S, Denmark) was used with the conventional whole-cell configuration. This system is an automated, chip-based planar patch clamp device allowing for up to 48 parallel independent experiments in one experimental assay run. Cells are added to each well and drawn by suction onto a small aperture to obtain a Gigaohm seal between the cell membrane and treated silicon surface, and whole-cell recordings initiated after access is achieved by suction and/or voltage pulses. The QPatch HT uses static perfusion, whereby a small volume of recording solution or drug is added to a reservoir on the chip and the solution perfuses across the cell through quartz-lined microfluidic channels; this solution is removed by capillary action when the next sample application is made.CHO-Kv1.3 cells were prepared for experiments by dissociation from T175 cell culture flasks using trypsin-EDTA (0.05%), cells were kept in serum free media in the cell hotel on board the QPatch HT. These cells were sampled, washed and re-suspended in extracellular recording solution by the QPatch HT immediately before application to the recording well site on the chip. Experiments were performed using the following solutions; extracellular solution contained (in mM); 150 NaCl, 10 KCl, 1 MgCl2, 3 CaCl2), 10 Glucose and 10 HEPES (pH 7.4, NaOH) and intracellular solution contained (in mM); 20 KCl, 120 KF, 10 HEPES, 10 EGTA, 5 ATP (pH 7.2, KOH).The potency (Inhibitory Concentration 50%, IC50) of synthesized compounds against Kv1.3 was determined from concentration-response relationships established by cumulatively applying four escalating concentrations of test compound to an individual cell and a minimum of N≥3 individual cells of data per compound were used to generate the IC50 value.
One may read the IC50 as the concentration that gives 50% inhibition. `CC1(C)N=C(C23CC(N(Cc4ccc(Cl)c(F)c4)S(=O)(=O)c4ccccc4)(C2)C3)N[C@H]1C(=O)N1CCC[C@H](C(F)(F)F)C1` (racemic) [US12128028, Example 173] displayed an IC50 of 103 nM. The result for `CC[C@@H]1N=C(C23CC(N(Cc4ccc(C(F)(F)F)cc4)S(=O)(=O)c4ccc(F)cc4)(C2)C3)N[C@@]1(C)C(=O)NCCC(F)(F)F` (racemic) [US12128028, Example 235] reads 212 nM. To `CC[C@H]1N=C(C23CC(N(Cc4ccc(C(F)(F)F)cc4)S(=O)(=O)c4ccc(F)cc4)(C2)C3)N[C@@]1(C)C(=O)NCCC(F)(F)F` (racemic) [US12128028, Example 259] belongs 365 nM.
